Experiment [1] deals with Structural maintenance of chromosomes protein 2 (Homo sapiens, UniProt O95347).
For experiment [2], the target named is T1, Serine/threonine-protein kinase A-Raf (Homo sapiens, UniProt P10398).
T1 sequence (P10398 whole entry): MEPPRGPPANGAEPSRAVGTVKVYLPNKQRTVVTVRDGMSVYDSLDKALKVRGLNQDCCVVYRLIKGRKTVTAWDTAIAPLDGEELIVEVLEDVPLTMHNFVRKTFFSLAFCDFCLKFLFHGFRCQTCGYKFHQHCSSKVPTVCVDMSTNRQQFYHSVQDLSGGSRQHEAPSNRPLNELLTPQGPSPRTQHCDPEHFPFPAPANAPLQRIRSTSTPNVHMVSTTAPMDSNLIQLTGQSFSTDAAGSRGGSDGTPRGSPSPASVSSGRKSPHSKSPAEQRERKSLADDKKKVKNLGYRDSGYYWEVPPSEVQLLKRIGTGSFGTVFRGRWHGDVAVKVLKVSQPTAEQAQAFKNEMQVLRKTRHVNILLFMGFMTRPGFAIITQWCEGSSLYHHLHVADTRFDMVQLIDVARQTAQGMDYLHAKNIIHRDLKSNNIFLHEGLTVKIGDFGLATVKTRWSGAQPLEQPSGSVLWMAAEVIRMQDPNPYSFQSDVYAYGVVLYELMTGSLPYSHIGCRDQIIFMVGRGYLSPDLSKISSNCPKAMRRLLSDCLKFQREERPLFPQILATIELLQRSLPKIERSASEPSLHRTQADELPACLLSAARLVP

The next experiment deals with T2, Pyridoxal kinase (Homo sapiens, UniProt O00764).
T2 sequence (O00764 whole entry): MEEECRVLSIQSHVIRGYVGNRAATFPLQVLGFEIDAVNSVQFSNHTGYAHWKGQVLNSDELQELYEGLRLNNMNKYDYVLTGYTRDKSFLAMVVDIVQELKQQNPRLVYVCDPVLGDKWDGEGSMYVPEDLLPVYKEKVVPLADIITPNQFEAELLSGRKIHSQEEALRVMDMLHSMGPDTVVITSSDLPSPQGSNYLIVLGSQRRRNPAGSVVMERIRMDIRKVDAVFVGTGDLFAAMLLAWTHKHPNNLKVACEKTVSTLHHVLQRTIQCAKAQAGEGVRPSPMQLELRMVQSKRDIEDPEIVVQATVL

Experiment [3] concerns the target T3, Very long-chain specific acyl-CoA dehydrogenase, mitochondrial (Homo sapiens, UniProt P49748).
T3 sequence (P49748 whole entry): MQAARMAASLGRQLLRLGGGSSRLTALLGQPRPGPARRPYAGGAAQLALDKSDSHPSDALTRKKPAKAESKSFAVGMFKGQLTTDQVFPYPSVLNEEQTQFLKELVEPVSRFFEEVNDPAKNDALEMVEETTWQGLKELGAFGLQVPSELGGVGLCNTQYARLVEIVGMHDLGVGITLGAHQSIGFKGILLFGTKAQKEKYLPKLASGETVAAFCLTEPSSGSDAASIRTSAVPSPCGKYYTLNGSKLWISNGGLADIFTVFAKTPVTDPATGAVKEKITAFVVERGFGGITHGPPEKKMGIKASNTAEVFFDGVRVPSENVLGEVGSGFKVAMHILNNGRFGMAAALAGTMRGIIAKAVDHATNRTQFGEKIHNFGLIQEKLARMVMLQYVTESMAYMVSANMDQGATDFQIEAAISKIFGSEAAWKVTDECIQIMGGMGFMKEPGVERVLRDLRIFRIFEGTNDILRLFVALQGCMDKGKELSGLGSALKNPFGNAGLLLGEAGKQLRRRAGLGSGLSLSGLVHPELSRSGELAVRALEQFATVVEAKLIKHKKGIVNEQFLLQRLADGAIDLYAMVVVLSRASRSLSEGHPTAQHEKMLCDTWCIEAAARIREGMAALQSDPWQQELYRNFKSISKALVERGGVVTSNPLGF

The target in experiment [4] is T4, Succinate--CoA ligase [ADP-forming] subunit beta, mitochondrial (Homo sapiens, UniProt Q9P2R7).
T4 sequence (Q9P2R7 whole entry): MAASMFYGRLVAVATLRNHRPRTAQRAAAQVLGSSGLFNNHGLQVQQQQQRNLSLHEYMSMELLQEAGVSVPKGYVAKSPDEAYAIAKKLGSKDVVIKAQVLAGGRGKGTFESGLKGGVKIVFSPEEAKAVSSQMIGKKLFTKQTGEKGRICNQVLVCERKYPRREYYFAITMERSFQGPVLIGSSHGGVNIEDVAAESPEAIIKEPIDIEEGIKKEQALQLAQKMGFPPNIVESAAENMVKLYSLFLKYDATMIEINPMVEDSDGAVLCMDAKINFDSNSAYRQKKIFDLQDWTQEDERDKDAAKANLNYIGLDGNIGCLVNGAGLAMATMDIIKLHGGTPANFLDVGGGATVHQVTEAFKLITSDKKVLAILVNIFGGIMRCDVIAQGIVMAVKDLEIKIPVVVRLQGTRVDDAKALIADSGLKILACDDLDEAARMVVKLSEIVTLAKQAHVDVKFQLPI

Experiment [5] addresses Mitogen-activated protein kinase 11 (Homo sapiens, UniProt Q15759).
Experiment [6] has as its target Serine/threonine-protein kinase pim-1 (Homo sapiens, UniProt P11309).
Experiment [7] addresses Putative heat shock protein HSP 90-beta 2 (Homo sapiens, UniProt Q58FF8).
The next experiment concerns the target LIM domain kinase 1 (Homo sapiens, UniProt P53667).
Experiment [8] has as its target T5, Interleukin-1 receptor-associated kinase 3 (Homo sapiens, UniProt Q9Y616).
T5 sequence (Q9Y616 whole entry): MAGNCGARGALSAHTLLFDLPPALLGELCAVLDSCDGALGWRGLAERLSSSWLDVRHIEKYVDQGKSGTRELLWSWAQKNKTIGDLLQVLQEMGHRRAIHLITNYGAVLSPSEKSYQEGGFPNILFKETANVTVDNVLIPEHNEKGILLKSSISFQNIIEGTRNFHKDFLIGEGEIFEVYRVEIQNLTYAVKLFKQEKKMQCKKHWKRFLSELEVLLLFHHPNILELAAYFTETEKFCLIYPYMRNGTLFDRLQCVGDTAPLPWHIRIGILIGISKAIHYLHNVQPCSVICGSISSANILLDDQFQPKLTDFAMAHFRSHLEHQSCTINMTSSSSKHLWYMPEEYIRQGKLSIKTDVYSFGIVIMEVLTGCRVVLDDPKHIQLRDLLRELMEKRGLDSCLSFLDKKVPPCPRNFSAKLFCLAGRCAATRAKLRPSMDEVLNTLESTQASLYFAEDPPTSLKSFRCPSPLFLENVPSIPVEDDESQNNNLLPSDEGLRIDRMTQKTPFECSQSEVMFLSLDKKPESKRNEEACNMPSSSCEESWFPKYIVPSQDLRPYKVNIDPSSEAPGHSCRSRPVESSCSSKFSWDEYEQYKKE

These results are taken from ChEMBL document CHEMBL3991601, “The target landscape of clinical kinase drugs” (Science, 2017).

Each structure is given as a SMILES string. Active and inactive are the calls of the source.
Also: in the data inactive means no Kd found up to 30 µM.

Sequence of Mitogen-activated protein kinase 11 (Q15759 whole entry): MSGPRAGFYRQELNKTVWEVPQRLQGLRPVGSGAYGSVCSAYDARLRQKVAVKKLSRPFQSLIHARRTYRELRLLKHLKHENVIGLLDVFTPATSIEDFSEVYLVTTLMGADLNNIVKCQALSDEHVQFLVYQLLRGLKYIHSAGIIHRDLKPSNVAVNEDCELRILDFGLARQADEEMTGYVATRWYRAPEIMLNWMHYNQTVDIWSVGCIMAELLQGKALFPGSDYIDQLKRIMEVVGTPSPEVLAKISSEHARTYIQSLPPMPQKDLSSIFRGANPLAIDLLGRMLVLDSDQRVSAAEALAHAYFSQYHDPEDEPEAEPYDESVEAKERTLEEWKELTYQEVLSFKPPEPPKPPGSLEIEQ
Sequence of Putative heat shock protein HSP 90-beta 2 (Q58FF8 whole entry, the tested form may be a part): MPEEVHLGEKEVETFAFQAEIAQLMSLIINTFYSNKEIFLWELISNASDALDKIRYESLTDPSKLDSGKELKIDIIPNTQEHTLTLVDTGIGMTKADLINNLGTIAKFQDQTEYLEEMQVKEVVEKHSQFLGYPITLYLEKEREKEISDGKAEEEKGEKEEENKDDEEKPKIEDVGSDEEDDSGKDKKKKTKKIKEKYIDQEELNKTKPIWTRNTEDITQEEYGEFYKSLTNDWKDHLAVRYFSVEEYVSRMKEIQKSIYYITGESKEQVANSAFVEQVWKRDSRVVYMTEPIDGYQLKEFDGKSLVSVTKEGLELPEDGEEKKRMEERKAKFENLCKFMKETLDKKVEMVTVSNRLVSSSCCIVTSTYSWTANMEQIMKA
Sequence of LIM domain kinase 1 (P53667 whole entry, the tested form may be a part): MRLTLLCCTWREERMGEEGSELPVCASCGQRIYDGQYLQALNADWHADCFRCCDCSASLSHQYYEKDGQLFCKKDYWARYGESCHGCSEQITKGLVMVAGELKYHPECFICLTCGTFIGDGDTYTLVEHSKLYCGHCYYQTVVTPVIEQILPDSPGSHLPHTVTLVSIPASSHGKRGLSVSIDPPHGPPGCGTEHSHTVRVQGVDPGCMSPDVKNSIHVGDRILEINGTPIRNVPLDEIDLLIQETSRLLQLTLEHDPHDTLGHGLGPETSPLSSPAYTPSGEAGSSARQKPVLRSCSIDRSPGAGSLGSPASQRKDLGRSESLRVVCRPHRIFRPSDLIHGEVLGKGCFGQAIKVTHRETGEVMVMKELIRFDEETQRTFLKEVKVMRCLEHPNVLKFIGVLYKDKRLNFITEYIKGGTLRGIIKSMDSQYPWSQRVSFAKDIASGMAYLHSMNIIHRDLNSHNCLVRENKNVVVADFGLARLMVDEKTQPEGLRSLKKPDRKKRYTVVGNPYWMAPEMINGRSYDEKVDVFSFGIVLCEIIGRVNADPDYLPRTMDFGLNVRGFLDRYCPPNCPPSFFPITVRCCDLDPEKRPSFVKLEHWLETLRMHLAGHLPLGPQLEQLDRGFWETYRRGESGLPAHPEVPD
Sequence of Serine/threonine-protein kinase pim-1 (P11309 whole entry): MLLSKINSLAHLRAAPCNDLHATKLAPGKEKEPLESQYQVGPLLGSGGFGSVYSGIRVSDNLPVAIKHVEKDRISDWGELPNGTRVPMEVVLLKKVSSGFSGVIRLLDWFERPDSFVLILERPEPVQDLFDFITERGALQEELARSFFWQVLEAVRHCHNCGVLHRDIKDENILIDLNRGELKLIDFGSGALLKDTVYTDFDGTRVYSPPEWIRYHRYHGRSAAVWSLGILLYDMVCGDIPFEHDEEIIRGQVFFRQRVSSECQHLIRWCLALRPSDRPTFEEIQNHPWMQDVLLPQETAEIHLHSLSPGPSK
Sequence of Structural maintenance of chromosomes protein 2 (O95347 whole entry): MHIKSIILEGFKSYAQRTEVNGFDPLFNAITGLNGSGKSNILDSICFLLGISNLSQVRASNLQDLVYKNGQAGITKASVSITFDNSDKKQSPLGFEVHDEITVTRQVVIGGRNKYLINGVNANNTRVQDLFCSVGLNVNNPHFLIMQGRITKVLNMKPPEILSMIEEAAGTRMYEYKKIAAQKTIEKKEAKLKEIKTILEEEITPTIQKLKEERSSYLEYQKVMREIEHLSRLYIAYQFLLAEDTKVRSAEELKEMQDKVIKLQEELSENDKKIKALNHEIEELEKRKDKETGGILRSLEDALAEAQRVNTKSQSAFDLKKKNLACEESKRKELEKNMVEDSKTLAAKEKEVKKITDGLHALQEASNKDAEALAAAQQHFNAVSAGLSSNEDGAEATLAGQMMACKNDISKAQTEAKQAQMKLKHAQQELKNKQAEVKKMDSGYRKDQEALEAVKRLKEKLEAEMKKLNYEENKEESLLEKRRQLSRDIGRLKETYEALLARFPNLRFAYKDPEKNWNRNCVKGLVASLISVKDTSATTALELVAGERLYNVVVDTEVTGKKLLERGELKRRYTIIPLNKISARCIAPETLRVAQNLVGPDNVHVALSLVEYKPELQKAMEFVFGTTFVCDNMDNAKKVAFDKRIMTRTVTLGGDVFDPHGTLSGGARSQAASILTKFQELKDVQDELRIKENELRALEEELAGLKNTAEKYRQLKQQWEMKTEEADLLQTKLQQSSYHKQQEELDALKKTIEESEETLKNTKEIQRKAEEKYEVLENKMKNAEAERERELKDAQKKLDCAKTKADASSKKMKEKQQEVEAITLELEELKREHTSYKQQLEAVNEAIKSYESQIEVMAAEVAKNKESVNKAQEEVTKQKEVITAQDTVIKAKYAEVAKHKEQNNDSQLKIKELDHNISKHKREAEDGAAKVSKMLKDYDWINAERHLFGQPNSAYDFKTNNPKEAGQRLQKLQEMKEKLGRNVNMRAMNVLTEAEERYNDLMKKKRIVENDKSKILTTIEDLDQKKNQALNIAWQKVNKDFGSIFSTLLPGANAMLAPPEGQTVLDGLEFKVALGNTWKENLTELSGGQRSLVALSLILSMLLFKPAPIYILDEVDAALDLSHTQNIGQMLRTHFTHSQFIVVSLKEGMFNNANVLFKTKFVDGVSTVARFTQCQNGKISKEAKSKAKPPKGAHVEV

`CO[C@H]1C[C@@H]2CC[C@@H](C)[C@@](O)(O2)C(=O)C(=O)N2CCCC[C@H]2C(=O)O[C@H]([C@H](C)C[C@@H]2CC[C@@H](OCCO)[C@H](OC)C2)CC(=O)[C@H](C)/C=C(\C)[C@@H](O)[C@@H](OC)C(=O)[C@H](C)C[C@H](C)/C=C/C=C/C=C/1C` [EVEROLIMUS]: the Kd (in experiment [1]; in experiment [2]; at Pyridoxal kinase; in [3]; in [4]; in experiment [5]) was > 30 µM (inactive) throughout. Besides, the Kd (in experiment [6]; in [7]; on LIM domain kinase 1; in [8]) was > 30 µM (inactive) throughout.

Take `CCCS(=O)(=O)Nc1ccc(F)c(C(=O)c2c[nH]c3ncc(-c4ccc(Cl)cc4)cc23)c1F` [VEMURAFENIB]: the Kd (as a rule, the concentration at which binding is half-saturated) in experiment [1] was > 30 µM (inactive); in experiment [2], 2.14 µM (active); on Pyridoxal kinase it was > 30 µM (inactive); in experiment [3] it was > 30 µM (inactive); in experiment [4], > 30 µM (inactive); in experiment [5], > 30 µM (inactive). In addition, the Kd (in [6]; in experiment [7]; at LIM domain kinase 1; in experiment [8]) was > 30 µM (inactive) in each case.

Take `Cn1ncc(Cl)c1-c1cc(C(=O)N[C@H](CN)Cc2cccc(F)c2)sc1Cl` [AFURESERTIB]: the Kd (in [1]; in [2]; at Pyridoxal kinase; in [3]; in [4]; in experiment [5]) was > 30 µM (inactive) each time. In addition, the Kd (in [6]; in experiment [7]; at LIM domain kinase 1; in [8]) was > 30 µM (inactive) in each case.

As to `CNC(=O)CN1CCC(Oc2cc3c(Nc4cccc(Cl)c4F)ncnc3cc2OC)CC1` [SAPITINIB], the Kd (in experiment [1]; in experiment [2]; on Pyridoxal kinase; in experiment [3]; in experiment [4]; in [5]) was > 30 µM (inactive) in each case. The Kd (in experiment [6]; in experiment [7]; at LIM domain kinase 1; in [8]) was > 30 µM (inactive) each time.

As for `CC(=O)Nc1cccc(-n2c(=O)n(C3CC3)c(=O)c3c(Nc4ccc(I)cc4F)n(C)c(=O)c(C)c32)c1` [TRAMETINIB], the Kd (in [1]; in experiment [2]; on Pyridoxal kinase; in experiment [3]; in experiment [4]; in experiment [5]) was > 30 µM (inactive) throughout. The Kd (in experiment [6]; in experiment [7]; on LIM domain kinase 1; in [8]) was > 30 µM (inactive) each time.

In the case of `COC(=O)N[C@@H](C)CNc1nccc(-c2cn(C(C)C)nc2-c2cc(Cl)cc(NS(C)(=O)=O)c2F)n1` [ENCORAFENIB], the Kd (in experiment [1]; in [2]; at Pyridoxal kinase; in experiment [3]; in experiment [4]; in experiment [5]) was > 30 µM (inactive) throughout. Moreover, the Kd in [6] is > 30 µM (inactive); in [7], > 30 µM (inactive); at LIM domain kinase 1, 0.026 µM (active); in experiment [8], > 30 µM (inactive).

In the case of `CNC(=O)c1ccc(-c2cnc3ncc(Cc4ccc5ncccc5c4)n3n2)cc1F` [CAPMATINIB], the Kd (in experiment [1]; in experiment [2]; at Pyridoxal kinase; in experiment [3]; in experiment [4]; in [5]) was > 30 µM (inactive) each time. Also, the Kd (in experiment [6]; in experiment [7]; on LIM domain kinase 1; in experiment [8]) was > 30 µM (inactive) in each case.

Turning to `COC(=O)[C@@]1(O)C[C@H]2O[C@]1(C)n1c3ccccc3c3c4c(c5c6ccccc6n2c5c31)C(=O)NC4` [K-252A], the Kd (in experiment [1]; in experiment [2]; on Pyridoxal kinase; in [3]; in experiment [4]; in experiment [5]) was > 30 µM (inactive) throughout. In addition, the Kd in [6] is > 30 µM (inactive); in experiment [7], > 30 µM (inactive); at LIM domain kinase 1, > 30 µM (inactive); in experiment [8] it was 0.254 µM (active).

Take `CCS(=O)(=O)N1CC(CC#N)(n2cc(-c3ncnc4[nH]ccc34)cn2)C1` [BARICITINIB]: the Kd (in experiment [1]; in [2]; on Pyridoxal kinase; in experiment [3]; in [4]; in [5]) was > 30 µM (inactive) each time. In addition, the Kd (in [6]; in experiment [7]; on LIM domain kinase 1; in experiment [8]) was > 30 µM (inactive) throughout.
